The subject of one series is α-synuclein inclusions. In words: Inclusion histology in α-synuclein transgenic mice (α-synuclein and ubiquitin immunostaining, Campbell-Switzer). The format is in vivo. As to conditions: for α-synuclein-positive cells per mm^2 versus vehicle: cortex and hippocampus. Here is the method:
(§1) Farnesyl transferase inhibitors Zarnestra and OSI-754 were administered to mice of the α-synuclein transgenic line described in Masliah et al. (Masliah et al. “Dopaminergic loss and inclusion body formation in alpha-synuclein mice: implications for neurodegenerative disorders” Science 287(5456): 1265-69, 2000; incorporated herein by reference). Animals from this line have α-synuclein neuronal inclusions in the cortex, hippocampus, and the olfactory bulb (Masliah et al. “Dopaminergic loss and inclusion body formation in alpha-synuclein mice: implications for neurodegenerative disorders” Science 287(5456): 1265-69, 2000; incorporated herein by reference). Transgenic mice were orally administered either FTI in 20% cyclodextrin solution or the same volume of vehicle alone twice a day for 30 or 90 days. In some cases, non-transgenic mice also received vehicle twice a day for 30 to 90 days. At the end of treatment, mice were sacrificed, and the brains removed and hemisected. One hemisphere of each was fixed in 4% paraformaldehyde/PBS (pH 7.4), cryoperserved, then sectioned for histology. The other hemisphere was subdivided into four brain regions, including the cortex and hippocampus, that were homogenized and processed into cytoplasmic and membrane fractions.
Formation of α-synuclein inclusions in the cortex and hippocampus was probed by immunostaining with an antibody for human α-synuclein. Cells positive for human α-synuclein were quantified. […] These regions were also analyzed for ubiquitin-immunoreactive inclusions and by the Campbell Switzer method of silver staining. Ubiquitin is known to be a constituent of Lewy bodies and in the α-synculein inclusions found in the transgenic mouse line used in the study (Masliah et al. “Dopaminergic loss and inclusion body formation in alpha-synuclein mice: implications for neurodegenerative disorders” Science 287(5456): 1265-69, 2000; incorporated herein by reference). […] Campbell-Switzer staining is a general marker of Lewy Body type inclusions (Uchihara et al. “Silver stainings distinguish Lewy bodies and glial cytoplasmic inclusions: comparison between Gallyas-Braak and Campbell-Switzer methods” Acta Neuropathol (Berl) 110(3):255-60, 2005; incorporated herein by reference).
Formation of α-synuclein inclusions in the cortex and hippocampus was probed by immunostaining with an antibody for human α-synuclein. Cells positive for human α-synuclein were quantified.

Series [1] has as its target recombinant farnesyl transferase (FTase) (Homo sapiens, UniProt P49354+P49356). Nature of the series: In vitro farnesyl transferase assay (fluorescent dansyl-pentapeptide). The format is biochemical. As to conditions: in vitro and in vivo. From the text:
These neuroblastoma cells can be differentiated into dopaminergic cells and are useful for assessing the pathogenesis of Parkinson's disease (PD). […] Similar findings were found in vivo. […] IC50 values for various inventive compounds have been determined in in vitro assays using recombinant farnesyl transferase and a dansylated pentapeptide substrate. For a description of the assay used, see Cassidy et al., Methods Enzymol. 250:30-43, 1995, which is incorporated herein by reference. […] The compounds were also found to inhibit the farnesylation of Ras in cells treated with the test compound. IC50 values in vivo range from about 0.5 nM to about 25 μM.
Compounds were analyzed for inhibition of farnesyl transferase (FTase) activity using an established fluorescent peptide-based assay (Pompliano et al 1992 J. Am. Chem. Soc. 114:7945; U.S. Pat. No. 5,525,479, issued Jun. 11, 1996; each of which is incorporated herein by reference). In summary, a dansyl-pentapeptide (dGCVLS) (SEQ ID NO: 8) was incubated at […] with […] farnesyl pyrophosphate (FPP) and 25-50 nM FTase in 50 mM Tris-HC1/12 mM MgC12/[…]/6 mM DTT/0.2% octyl-D- -glucopyranoside/pH 7.0 at room temperature while the increase in fluorescence of the peptide at Ex =340 nm , Em =485 nm upon farnesyl addition was monitored continuously by a spectrofluorometer. […]

The subject of another series is farnesylated UCH-L1. In words: Farnesylated UCH-L1 in cortex membrane fraction of α-synuclein transgenic mice (quantitative Western blot). It counts as in vivo. As to conditions: normalized to actin, 45 mg/kg twice a day, 30 days. As for the experimental part: Farnesyl transferase inhibitors Zarnestra and OSI-754 were administered to mice of the α-synuclein transgenic line described in Masliah et al. (Masliah et al. “Dopaminergic loss and inclusion body formation in alpha-synuclein mice: implications for neurodegenerative disorders” Science 287(5456): 1265-69, 2000; incorporated herein by reference). Animals from this line have α-synuclein neuronal inclusions in the cortex, hippocampus, and the olfactory bulb (Masliah et al. “Dopaminergic loss and inclusion body formation in alpha-synuclein mice: implications for neurodegenerative disorders” Science 287(5456): 1265-69, 2000; incorporated herein by reference). […]
Total α-synuclein levels were analyzed by a sandwich ELISA assay similar to one previously described (El-Agnaf et al. “Detection of oligomeric forms of alpha-synuclein protein in human plasma as a potential biomarker for Parkinson's disease” FASEB J. 20(3):419-25, 2006; incorporated herein by reference). […] Transgenic mice that received Zarnestra had lower α-synuclein protein levels than vehicle-treated transgenic mice and nearly the same as that detected in the non-transgenic group in both the cytoplasmic (FIG. 10) and membrane fractions (FIG. 11), which represent soluble and insoluble α-synuclein, respectively. […] The amount of UCH-L1 was determined by quantitative Western Blot. […]

A further series relates to α-synuclein. In words: α-synuclein sandwich ELISA in brain fractions of α-synuclein transgenic mice. The format is in vivo. Here is the method: as §1
Total α-synuclein levels were analyzed by a sandwich ELISA assay similar to one previously described (El-Agnaf et al. “Detection of oligomeric forms of alpha-synuclein protein in human plasma as a potential biomarker for Parkinson's disease” FASEB J. 20(3):419-25, 2006; incorporated herein by reference). In the cortex of vehicle treated animals, α-synuclein protein levels in the α-synuclein transgenic line are greater than in non-transgenic mice in both cytoplasmic (FIG. 10) and membrane fractions (FIG. 11). Transgenic mice that received Zarnestra had lower α-synuclein protein levels than vehicle-treated transgenic mice and nearly the same as that detected in the non-transgenic group in both the cytoplasmic (FIG. 10) and membrane fractions (FIG. 11), which represent soluble and insoluble α-synuclein, respectively. Farnesylated UCH-L1 in the cortex is contained in the membrane fraction. The amount of UCH-L1 was determined by quantitative Western Blot.

Series [2] concerns Neuronal Specific Nuclear Protein (NeuN). In words: NeuN staining of cortex and hippocampus of α-synuclein transgenic mice. As to conditions: 90 days. The format is in vivo.
The mark [3] stands for this setting: α-synuclein transgenic mice, summary, dose not given.

`C#Cc1cccc(-c2cc(=O)n(C)c3ccc(C(O)(c4ccc(Cl)cc4)c4cncn4C)cc23)c1` (stereo not drawn) [LNK-754]: the inclusions versus vehicle entry in the series on α-synuclein inclusions (9 mg/kg twice a day, 90 days) is “fewer inclusions”; in the series on α-synuclein inclusions (45 mg/kg twice a day, 90 days), “fewer inclusions”; in the series with α-synuclein inclusions (setting [3]), “fewer inclusions”. Besides, the “α-synuclein-positive cells per mm^2 versus vehicle” value with α-synuclein inclusions (9 mg/kg twice a day, 90 days) was “fewer α-synuclein-positive cells per mm^2”; in the series on α-synuclein inclusions (45 mg/kg twice a day, 90 days), “fewer α-synuclein-positive cells per mm^2”. In addition, in series [1], the “inhibition of the farnesylation of proteins and/or peptides” value was “inhibit the farnesylation of proteins and/or peptides in vitro and in vivo”. For the same molecule, in the series with farnesylated UCH-L1, the “amount of farnesylated UCH-L1” value is recorded as “decreased the amount of farnesylated UCH-L1”. Also, the “levels of α-synuclein protein (ELISA)” value with α-synuclein (cortex and hippocampus, 9 mg/kg twice a day, 90 days) is recorded as “decreased levels of α-synuclein protein”; with α-synuclein (cortex and hippocampus, 45 mg/kg twice a day, 90 days), “decreased levels of α-synuclein protein”; in the series with α-synuclein (cortex, cytoplasmic and membrane fractions, 45 mg/kg twice a day, 30 days), “decreased levels of α-synuclein protein”. Moreover, the “levels of α-synuclein in the cortex” value in the series on α-synuclein (setting [3]) is recorded as “decrease levels of α-synuclein in the cortex”. Besides, in series [2], the “neuronal morphology or density (NeuN staining)” value is “did not affect neuronal morphology or density”.
